Counter-ions that a name gives are not always drawn.
Target: T1, proton pump (H+/K+-ATPase) (UniProt P19156)
T1 construct: The gastric vesicle as an enzyme source was prepared by the same method as in the Experiment 1—1 of WO 94/14795
Assay: Inhibition of proton pump (H+/K+-ATPase) activity, gastric vesicle enzyme source
Type: biochemical
Conditions: pH 6.4, 37° C., 30 min preincubation, linear regression over 5 concentrations, read-out: IC50, inhibitory effects on proton pump (H+/K+-ATPase) activity
Protocol: Test Example 1: Inhibition of proton pump (H^+/K^+-ATPase) activity
The gastric vesicle as an enzyme source was prepared by the same method as in the Experiment 1—1 of WO 94/14795. Further, the inhibitory effect of proton pump activity was measured by the same method as in Experiment 1-2 of WO 94/14795.
Namely, the proton pump activity stimulated by Mg^++ was used as a negative control group, and the activity stimulated by Mg^++ and K^+ was used as a positive control group. Omeprazole was used as the control compound.
Test tubes were divided into 4 groups: Group 1 as negative control group (n=3), Group 2 as positive control group (n=3), Group 3 (n=5×2) to be administered with the compound of the present invention and Group 4 (n=5×2) to be administered with the control compound.
The inhibitory effects of Group 3 and 4 on proton pump activity were measured by employing the compounds prepared in Examples and omeprazole, respectively, each of which was dissolved in dimethyl sulfoxide (DMSO) at 5 different concentrations.
To each of Groups 1, 2, 3, and 4 was added 0.1 ml of magnesium chloride (4 mM) dissolved in 40 mM Tris-HCl buffer (pH 6.4) and 100 μg of enzyme source. The 50 μl of potassium chloride (60 mM) and 50 μl of ammonium chloride (6 mM) dissolved in 40 mM Tris-HCl buffer (pH 6.4) were added to all groups except for Group 1.
10 μl of dimethyl sulfoxide was added to each of Group 1 and 2; and to Group 3 was added […] of dimethyl sulfoxide solution prepared by dissolving compound of Example at 5 different concentrations (n=5×2). To Group 4, was added 10 μl of the solution prepared by dissolving omeprazole in dimethyl sulfoxide at 5 different concentrations (40, 20, 10, 5, 2.5 μM) (n=5×2). […] Tris-HCl buffer (pH 6.4) was added thereto so as to make the total volume 400 μl.
Thereafter the test tubes of each Group were placed at 37° C. for 30 minutes for the preincubation. ATP solution (6.6 mM) was added until the total volume became 500 μl. After the reaction was carried out at 37° C. for 30 minutes, 25% cold trichloroactic acid was added to terminate the enzyme reaction. The released inorganic phosphorous was measured by an automatic analyzer (Express 550, Corning).
The difference between Group 1 and Group 2 represents the proton pump activity activated by K^+ only. The IC50s of Group 3 and 4 were calculated using the Linear Regression method. The concentrations of the test compounds inhibiting 50% of the proton pump activity are represented as IC50 in Table 1.

| SMILES | IC50 [nM] |
| --- | --- |
| Cc1nc(Nc2ccc(Cl)cc2)nc(N2CCc3ccc(F)cc3C2C)c1C (centres unmarked) [Example 9, 5,6-dimethyl-2-(4-chlorophenylamino)-4-(1-methyl-7-fluoro-1,2,3,4-tetrahydroisoquinolin-2-yl)pyrimidine hydrochloride] | 900 |
| Cc1nc(Nc2ccc(F)cc2F)nc(N2CCc3ccc(F)cc3C2C)c1C (centres unmarked) [Example 8, 5,6-dimethyl-2-(2,4-difluorophenylamino)-4-(1-methyl-7-fluoro-1,2,3,4-tetrahydroisoquinolin-2-yl)pyrimidine hydrochloride] | 700 |
| Cc1nc(Nc2ccc(F)cc2)nc(N2CCc3ccccc3C2C)c1CF (centres unmarked) [Example 25, 5-fluoromethyl-6-methyl-2-(4-fluorophenylamino)-4-(1-methyl-1,2,3,4-tetrahydroisoquinolin-2-yl)-pyrimidine hydrochloride] | 4100 |
| Cc1nc(Nc2ccc(F)cc2)nc(N2CCc3c(Cl)cccc3C2C)c1C (centres unmarked) [Example 35, 5,6-dimethyl-2-(4-fluorophenylamino)-4-(1-methyl-5-chloro-1,2,3,4-tetrahydroisoquinolin-2-yl)pyrimidine hydrochloride] | 900 |
| Cc1nc(Nc2ccc(F)c(F)c2)nc(N2CCc3ccc(F)cc3C2C)c1C (centres unmarked) [Example 7, 5,6-dimethyl-2-(3,4-difluorophenylamino)-4-(1-methyl-7-fluoro-1,2,3,4-tetrahydroisoquinolin-2-yl)pyrimidine hydrochloride] | 2600 |
| Cc1nc(Nc2cccc(F)c2)nc(N2CCc3ccc(F)cc3C2C)c1C (centres unmarked) [Example 12, 5,6-dimethyl-2-(3-fluorophenylamino)4-(1-methyl-7-fluoro-1,2,3,4-tetrahydroisoquinolin-2-yl)pyrimidine hydrochloride] | 3200 |
| Cc1nc(Nc2ccc(F)cc2F)nc(N2CCc3cc(F)ccc3C2C)c1C (centres unmarked) [Example 19, 5,6-dimethyl-2-(2,4-difluorophenylamino)-4-(1-methyl-6-fluoro-1,2,3,4,-tetrahydroisoquinolin-2-yl)pyrimidine hydrochloride] | 1000 |
| Cc1nc(Nc2ccc(Cl)cc2)nc(N2CCc3cc(F)ccc3C2C)c1C (centres unmarked) [Example 20, 5,6-dimethyl-2-(4-chlorophenylamino)4-(1-methyl-6-fluoro-1,2,3,4-tetrahydroisoquinolin-2-yl)pyrimidine hydrochloride] | 1200 |
| Cc1nc(Nc2ccc(F)c(F)c2)nc(N2CCc3ccccc3C2C)c1C (centres unmarked) [Example 1, 5,6-dimethyl-2-(3,4-difluorophenylamino)-4-(1-methyl-1,2,3,4-tetrahydroisoquinolin-2-yl)pyrimidine hydrochloride] | 1600 |
| Cc1nc(Nc2ccccc2)nc(N2CCc3ccc(F)cc3C2C)c1C (centres unmarked) [Example 4, 5,6-dimethyl-2-phenylamino-4-(1-methyl-7-fluoro-1,2,3,4-tetrahydroisoquinolin-2-yl)pyrimidine hydrochloride] | 1000 |
| COc1ccc2[nH]c([S+]([O-])Cc3ncc(C)c(OC)c3C)nc2c1 (centres unmarked) [Omeprazole, reference compound] | 11500 |
| Cc1ccccc1Nc1nc(C)c(C)c(N2CCc3ccc(F)cc3C2C)n1 (centres unmarked) [Example 5, 5,6-dimethyl-2-(2-methylphenylamino)-4-(1-methyl-7-fluoro-1,2,3,4-tetrahydroisoquinolin-2-yl)pyrimidine hydrochloride] | 600 |
| Cc1nc(Nc2ccc(F)cc2)nc(N2CCc3cc(F)ccc3C2C)c1C (centres unmarked) [Example 14, 5,6-dimethyl-2-(4-fluorophenylamino)-4-(1-methyl-6-fluoro-1,2,3,4-tetrahydroisoquinolin-2-yl)pyrimidine hydrochloride] | 700 |

Further lines, results first:

| IC50 [nM] | SMILES |
| --- | --- |
| 1900 | Cc1nc(Nc2ccccc2F)nc(N2CCc3ccc(F)cc3C2C)c1C (centres unmarked) [Example 11, 5,6-dimethyl-2-(2-fluorophenylamino)-4-(1-methyl-7-fluoro-1,2,3,4-tetrahydroisoquinolin-2-yl)pyrimidine hydrochloride] |
| 900 | Cc1c(CF)nc(Nc2ccc(F)cc2)nc1N1CCc2ccccc2C1C (centres unmarked) [Example 24, 5-methyl-6-fluoromethyl-2-(4-fluorophenylamino)-4-(1-methyl-1,2,3,4-tetrahydroisoquinolin-2-yl)-pyrimidine hydrochloride] |
| 900 | Cc1nc(Nc2ccc(F)cc2F)nc(N2CCc3c(Cl)cccc3C2C)c1C (centres unmarked) [Example 39, 5,6-dimethyl-2-(2,4-difluorophenylamino)-4-(1-methyl-5-chloro-1,2,3,4-tetrahydroisoquinolin-2-yl)pyrimidine hydrochloride] |
| 200 | Cc1cc(F)ccc1Nc1nc(C)c(C)c(N2CCc3cc(F)ccc3C2C)n1 (centres unmarked) [Example 17, 5,6-dimethyl-2-(2-methyl-4-fluorophenylamino)-4-(1-methyl-6-fluoro-1,2,3,4-tetrahydroisoquinolin-2-yl)pyrimidine hydrochloride] |
| 300 | Cc1cc(F)ccc1Nc1nc(C)c(C)c(N2CCc3ccc(F)cc3C2C)n1 (centres unmarked) [Example 6, 5,6-dimethyl-2-(2-methyl-4-fluorophenylamino)-4-(1-methyl-7-fluoro-1,2,3,4-tetrahydroisoquinolin-2-yl)pyrimidine hydrochloride] |
| 3800 | Cc1nc(Nc2ccc(F)cc2F)nc(N2CCc3ccccc3C2C)c1C (centres unmarked) [Example 2, 5,6-dimethyl-2-(2,4-difluorophenylamino)-4-(1-methyl-1,2,3,4-tetrahydroisoquinolin-2-yl)pyrimidine hydrochloride] |
| 3700 | Cc1nc(Nc2ccc(F)cc2)nc(N2CCc3ccccc3C2CF)c1C (centres unmarked) [Example 26, 5,6-dimethyl-2-(4-fluorophenylamino)-4-(1-fluoromethyl-1,2,3,4-tetrahydroisoquinolin-2-yl)pyrimidine hydrochloride] |

— patent US6545008B1, “Pyrimidine derivatives and processes for the preparation thereof” (Yuhan Corporation, priority 1998, dated 2003)
